Measurements reported in PMC7524946, “[^11C]mHED PET follows a two-tissue compartment model in mouse myocardium with norepinephrine transporter (NET)-dependent uptake, while [^18F]LMI1195 uptake is NET-independent” (EJNMMI Research, 2020).
“And” between values parts separate entries of the source, which are not always exact repeats. Identical values can stand only once. “Also recorded” adds a separate entry of the source. Like-named read-outs stand apart in the source and are kept apart here.

How the values were obtained:
[1] = biological target: T1, norepinephrine transporter (NET) (Mus musculus, UniProt O55192); experiment: Dose dependency of myocardial [^11C]mHED uptake by PET/CT (NET saturation); type: in vivo, FVB/N mice; conditions: mouse myocardium
T1 construct: from tissue; host or cells: myocardium (sympathetic nerve terminals) of living FVB/N mice, in vivo PET/CT
Procedure: (§1) PET/computed tomography (CT) scans were performed with a calibrated SuperArgus PET/CT scanner (Sedecal, Madrid, Spain) with an axial field of view of 4.8 cm and a spatial resolution of 1.6–1.7 mm (full width at half maximum). Animals were under anaesthesia with ~ 2.5% isoflurane in oxygen/air (1:1) for tracer injection into the tail vein and during the scan. […] For scans without kinetic modelling, tracer was injected into mouse tail vein on scanner bed and the scan was started 1 min p.i. For kinetic modelling, [^11C]mHED was injected using the shunt system (see “Input function” section) on the scanner bed. Depth of anaesthesia was monitored by measuring the respiratory rate (SA Instruments, Inc., Stony Brook, USA). Body temperature was monitored by a rectal probe and kept at 37 °C by a heated air stream (37 °C). […] PET scans were followed by a CT for anatomical orientation.
For quantitative analyses, PET data in NIfTI file format were read with the R package oro.nifti version 0.9.1, and a cube of 36 × 30 × 30 voxels (8.7 × 7.3 × 7.3 mm^3) including the heart as judged from the PET and CT data was cropped. A liver mask was defined including all voxels with a slope ≥ − 0.012 SUV/min between 11 and 48 min p.i. (the slope limit was empirically defined by visual inspection of the results, Fig. 1). PET data corresponding to the liver mask were excluded. The myocardium mask was defined from the remaining data as the volume with highest SUV between 3 and 11 min p.i., corresponding to 0.5% of the individual body weight. Average SUV was calculated for the indicated time windows (stated as SUVstart time–end time). The SUV of the neck region was obtained from a spherical region of interest with 3 mm radius, placed over the shoulders, close to the spine.
The dose of combined administered [^11C]mHED and metaraminol (precursor for radiosynthesis) at half-maximal NET saturation in nmol/kg (D50) was calculated from the myocardial SUV1–31 min at various doses (D). […] Fit parameters were SUV1–31 min at indefinitely low dose (SUVmax), SUV1–31 min at full NET saturation, i.e. SUV1–31 min for nondisplaceable tracer (SUVmin) and D50, according to Eq. 3 which was fit to the data with the function nls of R.3 SUV1-31min=SUVmax-SUVmin×D50/D50+D+SUVmin

mouse myocardium = experiment: [^11C]mHED PET kinetic (compartment) modelling with arteriovenous shunt input function; type: in vivo, FVB/N mice; conditions: mean of 3 scans (SD)
Procedure: as §1
For kinetic modelling, an arteriovenous shunt system was applied to record the coincidences of arterial blood (Twilite, Swisstrace, Zurich, Switzerland) simultaneously with the PET data acquisition (Additional file 1). The resulting blood coincidences were transformed to Bq/ml with a calibration factor determined from simultaneous measurements of an [^11C]mHED solution in the PET scanner and the blood counter. Next, the blood Bq/ml was multiplied with fitted Eq. 2 to calculate the plasma activity concentration. Finally, the plasma Bq/ml was multiplied with fitted Eq. 1 to receive the parent tracer Bq/ml in plasma, which is the input function.
PET kinetic modelling with R was performed with a one- and three two-tissue compartment models according to Eq. 4,4 CPET=1-vb×Wmodel⊗Ca+vb×Cb where CPET is the activity concentration in the PET image, either as kBq/cm^3 or normalised as SUV, vb is the partial volume of blood in the region-of-interest (potentially including interstitial space), Wmodel is the model-dependent weighting function. Ca is the parent tracer activity concentration in the arterial plasma (input function, kBq/ml, or SUV), and Cb is the whole blood activity concentration as calculated from the blood coincidences, in kBq/cm^3 or as SUV.
WTCM1 for the one-tissue compartment model (TCM1, Fig. 2a) corresponds to K1 × exp(− k2 × t), with t as time, K1 and k2 the clearance term from plasma to tissue and rate constant back, respectively. WTCM2p and WTCM2s for the two-tissue compartment models with parallel (TCM2p, Fig. 2b) and serial (TCM2s, Fig. 2c) tissue compartments, respectively, were according to Eqs. 5–10 [16]. In the case of the TCM2p, K1, k2, K3, and k4 correspond to φ1, θ1, φ2, and θ2, respectively, of Eq. 5. WTCM2v for the two-tissue compartment model in Fig. 2d (TCM2v) was numerically solved from the differential equation system in Eqs. 11 and 12 with the R package deSolve and the ode function, with 1-s time intervals.
Besides the transfer clearance or rate constants K1, k2, k3 (or K3 for TCM2p), and k4, vb was included as a parameter to fit. Equation 3 was fit to the experimental TACs applying the optim minimization function of R.
Fits were run with multiple starts with a matrix of 101 sets of random start parameters between lower and upper limits for K1, k2, k3 (or K3), k4, and vb (Additional file 1: Table S1). The activity concentrations in the individual tissue compartments were simulated by numerically solving the respective differential equation systems for TCM2s and TCM2v and from the analytical solutions for TCM2p (the two exponential terms of Eq. 5). Calculations were performed in parallel on a 32 core workstation. Best fits were chosen based on the sum of squared residues (SSR) between predicted and experimental TACs. […] Correlations between parameters were calculated with the lm, cor, and cor.test functions of R and were considered significant at p < 0.05.

[2] = biological target: T1, norepinephrine transporter (NET); experiment: PET/CT myocardial tracer uptake with desipramine blocking (specificity for NET); type: in vivo, FVB/N mice; conditions: 20 mg/kg desipramine HCl i.p. 10 min before tracer i.v.
Procedure: as §1
Two [^11C]mHED scans (one baseline, one for kinetic modelling) were excluded from further analysis due to technical problems before or during the scan, respectively (not included in Table 1). […] Tissue radioactivity was either expressed as kBq/cm^3 or normalized to the injected dose per g body weight (kBq/g) and expressed as SUV, assuming a tissue density of 1 g/cm^3. […]

[3] = Procedure: For determining activity concentration ratios of plasma to whole blood in mice, 11–90 MBq [^11C]mHED were injected intravenously (i.v.) via the tail vein in awake mice. After anaesthesia, animals were euthanized at the indicated time points and blood was collected. An aliquot was centrifuged as described above to separate plasma from blood cells. Plasma and whole blood activity concentrations (Bq/ml) were determined by a gamma counter (Wizard 1480; Perkin Elmer) to calculate the plasma/whole blood activity concentration ratio (ρplasma/blood). Bi-exponential function (Eq. 2) was fit to ρplasma/blood over time using the nls function of R.2 ρplasma/blood=r1×exp-r3×t-r2×exp-r4×t+r2
In Eq. 2, r1 to r4 are the fit parameters and t is the time.

[4] = after [^11C]mHED i.v. injection
Procedure: Mice were injected awake with formulated [^11C]mHED (26–173 MBq) via the tail vein. Animals were anaesthetized with 5% isoflurane in oxygen/air (1:1) and euthanized by decapitation at the indicated time points to collect blood, urine, and heart tissue. Plasma was separated from blood by centrifugation (5000×g for 5 min at 4 °C). Plasma and urine were each mixed with equal volumes of ice-cold acetonitrile (MeCN) for protein precipitation. The dissected heart was homogenized in 2 ml PBS, and proteins were precipitated with 2 ml ice-cold MeCN. The samples were centrifuged (5000×g, 4 °C), and the supernatants were filtered and analysed by radio-UPLC (Waters Acquity UPLC HSS T3 1.8 µm) with the following separation conditions: 10 mM NH4HCO3 (solvent A), MeCN (solvent B); 0.0–1.0 min, 5–30% B; 1.0–1.7 min, 30% B; 1.7–1.8 min, 30–5% B and 1.8–3.0 min, 5% B at a flow rate of 0.5 ml/min (retention time: 1.75 min). The fraction of parent tracer radioactivity to total radioactivity in plasma (fparent) was calculated as the ratio of radioactivity in the [^11C]mHED peak and total detected radioactivity in the chromatogram.
In Eq. 1, q1 to q4 are the fit parameters (q3 was estimated and fixed) and t is the time. Equation 1 was empirically defined, taking into account the exponential functions of time under linear kinetics and a lag phase for metabolite formation.

NET [5] = conditions: cited from earlier work; for D50: rat left ventricle wall
NET [6] = tested on: NET; design: method as in PMID 20679472, PMID 9290077; conditions: mouse myocardium; cited from earlier work
myocardium = tested on: myocardium; design: method as in PMID 27230922; conditions: humans, recent PET study; cited from earlier work
NET [7] = tested on: NET; design: method as in PMID 21555377, PMID 23601914; conditions: rabbits; cited from earlier work
NET [8] = tested on: NET; design: method as in PMID 21555377, PMID 23601914; conditions: nonhuman primates; cited from earlier work
NET [9] = tested on: NET; design: method as in PMID 21555377, PMID 23601914; conditions: human subjects; cited from earlier work
NET [10] = tested on: NET; design: method as in PMID 21555377, PMID 23601914; conditions: rats; cited from earlier work
[11] = volume-of-interest 0.5% body volume

T1 sequence (O55192 whole entry): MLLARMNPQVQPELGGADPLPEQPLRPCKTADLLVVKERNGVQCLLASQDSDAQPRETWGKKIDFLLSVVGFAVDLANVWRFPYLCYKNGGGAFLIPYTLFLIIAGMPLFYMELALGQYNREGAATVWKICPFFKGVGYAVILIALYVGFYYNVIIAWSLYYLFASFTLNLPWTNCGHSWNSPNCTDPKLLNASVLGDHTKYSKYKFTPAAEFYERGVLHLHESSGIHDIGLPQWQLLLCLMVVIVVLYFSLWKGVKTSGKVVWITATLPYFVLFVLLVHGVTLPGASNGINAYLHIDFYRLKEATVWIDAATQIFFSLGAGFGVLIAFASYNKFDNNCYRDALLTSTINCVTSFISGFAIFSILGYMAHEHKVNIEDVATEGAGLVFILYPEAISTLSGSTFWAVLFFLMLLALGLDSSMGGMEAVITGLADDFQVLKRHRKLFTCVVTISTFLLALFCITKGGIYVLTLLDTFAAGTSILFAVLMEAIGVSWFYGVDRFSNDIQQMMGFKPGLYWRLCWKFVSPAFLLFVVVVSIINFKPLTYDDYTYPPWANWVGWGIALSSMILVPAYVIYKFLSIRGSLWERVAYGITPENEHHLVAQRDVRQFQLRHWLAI

C[C@H](N[11CH3])[C@H](O)c1cccc(O)c1 [[^11C]mHED, [^11C]meta-hydroxyephedrine]
D50 (dose of combined [^11C]mHED and metaraminol at half-maximal NET saturation) ([1]; from SUV1–31 min, fit Eq. 3, n = 14 scans): 88.3 nmol/kg | D50 (dose at half-maximal NET saturation) ([1]; from SUV1–61 min (complete scan duration)): 89.1 nmol/kg | Fit SUVmax (SUV1–31 min at indefinitely low dose) [1, 11]: 4.4 | Fit SUVmin (SUV1–31 min at full NET saturation, nondisplaceable tracer) [1, 11]: 1.0 | K1 (mouse myocardium; TCM1): 0.87 ± 0.11 ml/min/cm^3 and 0.868 (0.113) ml/min/cm^3 | k2 (mouse myocardium; TCM1): 0.029 (0.01) 1/min | K1 (mouse myocardium; TCM2p): 0.499 (0.153) ml/min/cm^3 | K3 (mouse myocardium; TCM2p): 0.448 (0.114) ml/min/cm^3 | k2 (mouse myocardium; TCM2p): 0.0125 (0.0034) 1/min | k4 (mouse myocardium; TCM2p): 0.134 (0.040) 1/min | K1 (mouse myocardium; TCM2s): 0.947 ± 0.146 ml/min/cm^3 and 0.947 (0.146) ml/min/cm^3 | k2 (mouse myocardium; TCM2s): 0.0672 (0.0062) 1/min | k3 (mouse myocardium; TCM2s): 0.0541 (0.0263) 1/min | k4 (mouse myocardium; TCM2s): 0.0254 (0.0117) 1/min | K1 (mouse myocardium; TCM2v): 0.947 ± 0.146 ml/min/cm^3 and 0.947 (0.146) ml/min/cm^3 | k2 (mouse myocardium; TCM2v): 0.0672 (0.0062) 1/min | k3 (mouse myocardium; TCM2v): 0.0669 (0.0344) 1/min | k4 (mouse myocardium; TCM2v): 0.0125 (0.0034) 1/min | Blocking of myocardial tracer uptake by desipramine [2]: significantly reduced; also recorded: blocking effect was observed | ρplasma/blood (plasma/whole blood activity concentration ratio) ([3]; at 3 min): ~ 0.6 | ρplasma/blood (plasma/whole blood activity concentration ratio) ([3]; constant value from ~ 20 min onwards): ~ 1 | ρplasma/blood (plasma/whole blood activity concentration ratio) ([3]; time t = 0, assumed 1/(1-Hkt), hematocrit 0.458): 1.85 | Radiometabolite in plasma and urine ([4]; mouse): detected a radiometabolite in plasma and urine | Radiometabolite in myocardium ([4]; mouse heart extract): no radiometabolite were detected | Reported D50 (NET [5]; rat myocardium): 91 nmol/kg | Reported D50 (NET [6]): 132 nmol/kg | K1 of [^11C]mHED uptake (myocardium): up to 0.6 ml/min/g

N=C(N)NCc1ccc(OCCC[18F])c(Br)c1 [[^18F]LMI1195, [^18F]flubrobenguane]
Blocking of myocardial tracer uptake by desipramine [2]: not | Desipramine sensitivity of cardiac uptake (NET [7]): desipramine-sensitive | Desipramine sensitivity of cardiac uptake (NET [8]): desipramine-sensitive | Desipramine sensitivity of cardiac uptake (NET [9]): desipramine-sensitive | Desipramine sensitivity of cardiac uptake (NET [10]): not in rats

CNC(C)C(O)c1cccc(O)c1 (stereo not shown) [mHED, meta-hydroxyephedrine]
D50 (NET [5]): 90 to 100 nmol/kg

C[C@H](N)[C@H](O)c1cccc(O)c1 [metaraminol]
D50 (NET [5]): 90 to 100 nmol/kg
